Reference: the NIST ThermoML archive (doi:10.1016/j.jct.2008.04.006)
± gives the expanded uncertainty stated by the source.

Experiments:
[1] = 100 kPa, Liquid
[2] = refractive index (Na D-line) (dimensionless); settings: 298.15 K; 101.33 kPa; Liquid; Standard Abbe refractometry
[3] = xn = mol fraction of the nth substance listed; settings: 100 kPa, Liquid
[4] = refractive index (Na D-line) (dimensionless); xn = mol fraction of the nth substance listed; settings: 298.15 K, 100 kPa, Liquid, Standard Abbe refractometry

COS(=O)(=O)[O-].Cn1cc[n+](C)c1 [1,3-dimethylimidazolium methylsulfate]
[1]
Settings | mass density [kg/m3] | viscosity [mPa·s]
298.15 K | 1329.12 ± 3.6 | 77.7 ± 9.7
313.15 K | 1318.56 ± 3.5 | 41.68 ± 2.9
328.15 K | 1308.13 ± 3.5 | 25.21 ± 1.8

Settings | refractive index
[2] | 1.48296 ± 0.0012

COS(=O)(=O)[O-].Cn1cc[n+](C)c1 [1,3-dimethylimidazolium methylsulfate] + CCO
[3]
Settings | mass density, 298.15 K [kg/m3] | mass density, 313.15 K [kg/m3] | mass density, 328.15 K [kg/m3] | viscosity, 298.15 K [mPa·s] | viscosity, 313.15 K [mPa·s] | viscosity, 328.15 K [mPa·s]
x2 = 0 | 1329.12 ± 3.6 | 1318.56 ± 3.5 | 1308.13 ± 3.5 | 77.7 ± 5.1 | 41.68 ± 1.7 | 25.21 ± 1.1
x2 = 0.0669 | 1316.47 ± 3.1 | 1305.89 ± 3.1 | 1295.53 ± 3 | 62.1 ± 2.4 | 34.42 ± 1.4 | 21.43 ± 0.94
x2 = 0.1228 | 1305.19 ± 2.8 | 1294.59 ± 2.7 | 1284.2 ± 2.7 | 51.6 ± 1.3 | 29.38 ± 1.2 | 18.72 ± 0.83
x2 = 0.2212 | 1282.46 ± 2.2 | 1271.77 ± 2.1 | 1261.38 ± 2.1 | 36.97 ± 1.4 | 22.8 ± 0.94 | 15.07 ± 0.7
x2 = 0.2944 | 1263.18 ± 1.8 | 1252.46 ± 1.8 | 1241.97 ± 1.7 | 29.56 ± 1.1 | 17.97 ± 0.77 | 12.28 ± 0.61
x2 = 0.3984 | 1231.22 ± 1.3 | 1220.4 ± 1.3 | 1209.57 ± 1.3 | 20.26 ± 0.82 | 12.87 ± 0.62 | 9.141 ± 0.53
x2 = 0.5 | 1192.8 ± 0.96 | 1181.88 ± 0.94 | 1171.12 ± 0.92 | 12.83 ± 0.61 | 8.823 ± 0.52 | 6.461 ± 0.47
x2 = 0.5926 | 1150.85 ± 0.69 | 1139.74 ± 0.67 | 1128.74 ± 0.66 | 8.784 ± 0.51 | 6.258 ± 0.47 | 4.727 ± 0.44
x2 = 0.6921 | 1094.3 ± 0.45 | 1082.98 ± 0.44 | 1071.75 ± 0.43 | 5.706 ± 0.46 | 4.309 ± 0.44 | 3.246 ± 0.42
x2 = 0.797 | 1018.1 ± 0.26 | 1006.41 ± 0.25 | 994.72 ± 0.26 | 3.513 ± 0.42 | 2.649 ± 0.41 | 2.077 ± 0.41
x2 = 0.8957 | 923.16 ± 0.2 | 910.98 ± 0.21 | 898.7 ± 0.22 | 2.096 ± 0.41 | 1.603 ± 0.41 | 1.265 ± 0.4
x2 = 0.945 | 864.26 ± 0.2 | 851.76 ± 0.21 | 839.06 ± 0.22 | 1.602 ± 0.41 | 1.225 ± 0.4 | 0.961 ± 0.4

[4]
Settings | refractive index
x2 = 0 | 1.48296 ± 0.0012
x2 = 0.0669 | 1.48028 ± 0.0011
x2 = 0.1228 | 1.47773 ± 0.0011
x2 = 0.2212 | 1.47336 ± 0.001
x2 = 0.2944 | 1.46936 ± 0.00099
x2 = 0.3984 | 1.46252 ± 0.00092
x2 = 0.5 | 1.45421 ± 0.00085
x2 = 0.5926 | 1.44554 ± 0.0008
x2 = 0.6921 | 1.43248 ± 0.00076
x2 = 0.797 | 1.41494 ± 0.00072
x2 = 0.8957 | 1.39329 ± 0.00069
x2 = 0.945 | 1.37874 ± 0.00068
